One experiment concerns the target T1, BRM (Homo sapiens, UniProt P51531).
T1 construct: made in house; host or cells: High Five insect cells
The experiment is described as follows: ATPase catalytic activity of BRM, ADP-Glo in vitro biochemical assay. To be noted: for IC50: 30 nM BRM, 400 μM ATP; for Ratio* (BRG1 IC50 (μM) divided by BRM IC50 (μM)): selectivity ratio BRG1 IC50 / BRM IC50. The essentials:
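ADP-Glo luminescence, after depletion of leftover ATP and conversion of ADP, reported the activity. The 1 h room-temperature reaction held 400 μM ATP, 20 nM salmon sperm DNA and 30 nM BRM in 20 mM Tris pH 8, 20 mM MgCl2, 50 mM NaCl, 0.1% Tween-20, 1 mM DTT.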
In general terms: ADP-Glo turns the ADP formed in a reaction into a luminescent signal.

The next experiment addresses T2, BRG-1 (Homo sapiens, UniProt P51532).
T2 construct: made in house; host or cells: High Five insect cells
The experiment is described as follows: ATPase catalytic activity of BRG-1, ADP-Glo in vitro biochemical assay. To be noted: 30 nM BRG-1, 400 μM ATP, read-out: BRG1 IC50. The essentials:
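In this in vitro format, BRG-1 hydrolysis product ADP is detected via a two-step ADP-Glo workup (ATP removal, then ADP-to-ATP conversion with luciferase detection) followed by a luminescence read.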

Where [1] appears, read: ATPase catalytic activity, ADP-Glo.

Read-outs that look alike come from different tables or passages of the source.

What is called IC50 is the concentration that inhibits the measured activity by half.

T2 sequence (P51532 whole entry): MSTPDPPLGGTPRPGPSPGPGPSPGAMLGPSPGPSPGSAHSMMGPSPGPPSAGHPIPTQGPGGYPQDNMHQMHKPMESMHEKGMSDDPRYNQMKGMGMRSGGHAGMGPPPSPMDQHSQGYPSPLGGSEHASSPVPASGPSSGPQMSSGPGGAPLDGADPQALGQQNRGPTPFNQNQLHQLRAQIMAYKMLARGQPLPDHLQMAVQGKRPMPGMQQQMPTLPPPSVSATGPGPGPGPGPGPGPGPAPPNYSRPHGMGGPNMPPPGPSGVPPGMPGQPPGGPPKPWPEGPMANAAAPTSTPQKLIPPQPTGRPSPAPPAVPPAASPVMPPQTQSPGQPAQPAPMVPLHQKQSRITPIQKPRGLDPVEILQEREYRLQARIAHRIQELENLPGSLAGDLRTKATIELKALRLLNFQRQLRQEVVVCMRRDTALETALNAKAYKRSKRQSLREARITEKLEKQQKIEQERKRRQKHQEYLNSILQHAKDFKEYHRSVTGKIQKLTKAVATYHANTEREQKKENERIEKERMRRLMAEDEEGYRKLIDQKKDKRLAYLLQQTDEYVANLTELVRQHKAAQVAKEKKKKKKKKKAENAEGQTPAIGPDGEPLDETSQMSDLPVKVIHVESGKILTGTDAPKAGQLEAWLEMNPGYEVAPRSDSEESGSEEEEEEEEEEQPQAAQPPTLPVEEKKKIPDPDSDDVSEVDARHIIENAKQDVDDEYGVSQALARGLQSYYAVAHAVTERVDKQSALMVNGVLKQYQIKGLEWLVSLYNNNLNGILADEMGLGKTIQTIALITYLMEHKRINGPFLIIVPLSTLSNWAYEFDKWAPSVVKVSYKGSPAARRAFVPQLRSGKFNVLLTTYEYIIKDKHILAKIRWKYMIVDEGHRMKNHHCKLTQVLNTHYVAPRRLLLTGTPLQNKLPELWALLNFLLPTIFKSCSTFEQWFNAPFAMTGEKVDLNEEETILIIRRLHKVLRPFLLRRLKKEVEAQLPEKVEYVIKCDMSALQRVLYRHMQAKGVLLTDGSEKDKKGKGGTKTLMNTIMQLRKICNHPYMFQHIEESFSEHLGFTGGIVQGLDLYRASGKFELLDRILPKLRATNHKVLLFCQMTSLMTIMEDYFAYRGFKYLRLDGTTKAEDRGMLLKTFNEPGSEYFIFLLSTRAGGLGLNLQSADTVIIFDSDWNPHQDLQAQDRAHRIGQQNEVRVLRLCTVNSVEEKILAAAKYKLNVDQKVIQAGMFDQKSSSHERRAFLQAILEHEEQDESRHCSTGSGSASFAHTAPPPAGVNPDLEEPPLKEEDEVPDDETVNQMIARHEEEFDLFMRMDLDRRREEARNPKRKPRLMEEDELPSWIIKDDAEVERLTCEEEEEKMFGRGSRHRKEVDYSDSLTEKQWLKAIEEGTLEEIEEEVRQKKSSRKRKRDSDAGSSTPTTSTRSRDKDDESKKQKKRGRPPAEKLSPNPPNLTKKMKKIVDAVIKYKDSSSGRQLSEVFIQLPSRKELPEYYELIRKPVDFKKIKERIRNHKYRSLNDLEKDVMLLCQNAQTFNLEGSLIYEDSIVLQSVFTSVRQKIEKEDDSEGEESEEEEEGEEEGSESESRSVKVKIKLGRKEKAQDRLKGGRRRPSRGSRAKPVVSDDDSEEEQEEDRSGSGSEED
T1 sequence (P51531 whole entry): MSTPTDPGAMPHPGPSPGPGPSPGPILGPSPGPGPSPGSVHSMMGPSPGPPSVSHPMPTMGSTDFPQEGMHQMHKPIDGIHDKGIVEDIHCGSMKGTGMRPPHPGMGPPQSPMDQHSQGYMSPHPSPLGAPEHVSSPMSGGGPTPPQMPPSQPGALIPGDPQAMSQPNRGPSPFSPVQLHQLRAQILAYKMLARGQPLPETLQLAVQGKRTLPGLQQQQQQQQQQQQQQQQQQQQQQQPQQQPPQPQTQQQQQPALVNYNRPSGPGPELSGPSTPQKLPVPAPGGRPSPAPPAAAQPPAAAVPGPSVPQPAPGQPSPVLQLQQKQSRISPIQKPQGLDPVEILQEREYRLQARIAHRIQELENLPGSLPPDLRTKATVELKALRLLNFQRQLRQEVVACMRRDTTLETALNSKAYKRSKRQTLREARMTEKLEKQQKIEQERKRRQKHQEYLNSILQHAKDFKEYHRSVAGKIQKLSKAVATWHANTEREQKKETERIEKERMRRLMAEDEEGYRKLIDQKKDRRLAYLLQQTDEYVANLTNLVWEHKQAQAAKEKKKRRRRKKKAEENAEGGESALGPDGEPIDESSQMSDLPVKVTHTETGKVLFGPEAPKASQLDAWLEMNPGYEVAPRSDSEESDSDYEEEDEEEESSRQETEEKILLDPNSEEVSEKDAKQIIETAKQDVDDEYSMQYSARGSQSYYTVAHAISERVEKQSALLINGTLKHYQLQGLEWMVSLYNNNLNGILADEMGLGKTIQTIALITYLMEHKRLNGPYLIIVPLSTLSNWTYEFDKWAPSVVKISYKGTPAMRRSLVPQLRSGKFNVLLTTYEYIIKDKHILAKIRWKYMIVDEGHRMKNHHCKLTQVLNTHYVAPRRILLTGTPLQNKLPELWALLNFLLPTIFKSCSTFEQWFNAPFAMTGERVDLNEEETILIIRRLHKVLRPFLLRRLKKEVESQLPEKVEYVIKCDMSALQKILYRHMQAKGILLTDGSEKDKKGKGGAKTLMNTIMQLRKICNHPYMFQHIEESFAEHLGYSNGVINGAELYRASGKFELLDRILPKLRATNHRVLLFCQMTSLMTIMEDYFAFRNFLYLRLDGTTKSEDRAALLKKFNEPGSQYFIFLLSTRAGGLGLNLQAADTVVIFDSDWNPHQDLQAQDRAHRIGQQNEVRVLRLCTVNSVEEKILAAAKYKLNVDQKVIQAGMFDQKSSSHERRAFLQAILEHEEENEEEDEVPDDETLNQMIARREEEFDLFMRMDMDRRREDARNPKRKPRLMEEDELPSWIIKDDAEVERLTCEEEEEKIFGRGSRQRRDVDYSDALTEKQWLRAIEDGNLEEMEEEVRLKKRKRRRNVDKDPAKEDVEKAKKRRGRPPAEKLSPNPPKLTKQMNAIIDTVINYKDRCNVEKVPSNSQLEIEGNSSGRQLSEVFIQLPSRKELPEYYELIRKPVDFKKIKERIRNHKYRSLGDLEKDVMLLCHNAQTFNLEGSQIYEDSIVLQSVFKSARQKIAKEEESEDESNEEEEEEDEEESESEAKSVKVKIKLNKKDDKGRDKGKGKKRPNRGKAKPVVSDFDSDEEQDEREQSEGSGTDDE

With `O=C(NCc1cc2nc(N3CCCc4ccc(Cl)cc43)ccc2cn1)c1ccc2c(c1)S(=O)(=O)CCOC2` [Compound 533], the half-maximal inhibitory concentration (IC50) at BRM (setting [1]) turned out to be 7.3 nM; on BRG-1 (setting [1]), 91.4 nM. The “Ratio*” value at BRM (ratio of BRG1 IC50 to BRM IC50) was found to be 12.51.

For `O=C(NCc1cc2nc(N3CCOc4nc(C(F)F)ccc43)ccc2cn1)c1ccc2c(c1)S(=O)(=O)CCOC2` [Compound 846], the IC50 was determined as 406 nM against BRM (ADP-Glo ATPase assay) and 4570 nM on BRG-1 (ADP-Glo ATPase assay). For the same compound, the “Ratio*” value on BRM (ratio BRG1 IC50 / BRM IC50) is given as 11.26.

For the compound `CCS(=O)(=O)c1cc(C(=O)NCc2cc3nc(-c4cncc(C5CC5)n4)ccc3cn2)ccc1C` [Compound 275], the IC50 came to 84.9 nM on BRM (ADP-Glo ATPase assay) and 1320 nM on BRG-1 (ADP-Glo ATPase assay). Further, at BRM, the “Ratio* (BRG1 IC50 (μM) divided by BRM IC50 (μM))” value amounted to 15.55.

With `O=C(NCc1cc2nc(N3CCOc4cc(N5CCC(F)(F)C5)cnc43)ccc2cn1)c1ccc2c(c1)S(=O)(=O)CCOC2` [Compound 758], the IC50 is 35.6 nM on BRM (ADP-Glo ATPase assay) and 507 nM at BRG-1 (ADP-Glo ATPase assay). Also, on BRM (ratio BRG1 IC50 / BRM IC50), the “Ratio*” value is on record as 14.23.

`COC[C@H]1C[C@H]1N(C)c1cccc(-c2ccc3cnc(CNC(=O)c4ccc5c(c4)S(=O)(=O)CCOC5)cc3n2)n1` [Compound 412]: the IC50 was 76.5 nM against BRM (setting [1]) and 653 nM on BRG-1 (setting [1]). On BRM (ratio of BRG1 IC50 to BRM IC50), the “Ratio*” value was 8.53.

`[2H]C1([2H])Oc2ccc(C(=O)NCc3cc4nc(N5CCOc6ccc(C(F)F)nc65)ccc4cn3)cc2S(=O)(=O)C([2H])([2H])C1([2H])[2H]` [Compound 818]: the IC50 on BRM (ADP-Glo ATPase assay) amounted to 62.4 nM; on BRG-1 (ADP-Glo ATPase assay), 1680 nM. The “Ratio*” value at BRM (ratio BRG1 IC50 / BRM IC50) is 26.90.

For the compound `COCCCN(C)c1cccc(-c2ccc3cnc(CNC(=O)c4ccc5c(c4)S(=O)(=O)CCOC5)cc3n2)n1` [Compound 125], the IC50 on BRM (ADP-Glo ATPase assay) worked out at 18.3 nM; at BRG-1 (ADP-Glo ATPase assay) it was 224 nM. Besides, the “Ratio* (BRG1 IC50 (μM) divided by BRM IC50 (μM))” value on BRM was found to be 12.26.

As to `COCc1nc2c(cc1Cl)CCCN2c1ccc2cnc(CNC(=O)c3ccc4c(c3)S(=O)(=O)CCOC4)cc2n1` [Compound 599], the IC50 against BRM (setting [1]) turned out to be 58.8 nM; at BRG-1 (setting [1]), 737 nM. Also, the “Ratio*” value at BRM (ratio of BRG1 IC50 to BRM IC50) worked out at 12.54.

Turning to `COCC1CN(c2cccc(-c3ccc4cnc(CNC(=O)c5ccc6c(c5)S(=O)(=O)CCOC6)cc4n3)n2)C1` [Compound 221], the figures for the IC50 against BRM (ADP-Glo ATPase assay) and at BRG-1 (ADP-Glo ATPase assay) were 82.3 nM and 794 nM, respectively. In addition, the “Ratio* (BRG1 IC50 (μM) divided by BRM IC50 (μM))” value on BRM is recorded as 9.65.

Consider `O=C(NCc1cc2cc(N3CCOc4cnc(C5CC5)nc43)ccc2cn1)c1ccc2c(c1)S(=O)(=O)CCOC2` [Compound 822], for which the half-maximal inhibitory concentration (IC50) worked out at 36.7 nM on BRM (ADP-Glo ATPase assay) and 458 nM on BRG-1 (ADP-Glo ATPase assay). Moreover, the “Ratio*” value on BRM (ratio BRG1 IC50 / BRM IC50) is 12.47.

With `COc1ccccc1-c1ccc2cnc(CNC(=O)c3ccc4c(c3)S(=O)(=O)CCOC4)cc2n1` [Compound 254], the figures for the IC50 against BRM (ADP-Glo ATPase assay) and at BRG-1 (ADP-Glo ATPase assay) were 54.2 nM and 517 nM, respectively. Besides, on BRM, the “Ratio* (BRG1 IC50 (μM) divided by BRM IC50 (μM))” value is listed as 9.53.

For the compound `COc1ncccc1-c1ccc2cnc(CNC(=O)c3ccc4c(c3)S(=O)(=O)CCOC4)cc2n1` [Compound 808], the figures for the IC50 at BRM (ADP-Glo ATPase assay) and on BRG-1 (ADP-Glo ATPase assay) were 84 nM and 1050 nM, respectively. On BRM (ratio BRG1 IC50 / BRM IC50), the “Ratio*” value amounted to 12.50.

Regarding `O=C(NCc1cc2nc(N3CCCC4CCCCC43)ccc2cn1)c1ccc2c(c1)S(=O)(=O)CCOC2` (stereo not drawn) [Compound 640], the IC50 stood at 615 nM at BRM (setting [1]) and 4400 nM at BRG-1 (setting [1]). The “Ratio*” value at BRM (ratio of BRG1 IC50 to BRM IC50) was determined as 7.16.

Consider `O=C(NCc1cc2nc(-c3cccc4c3OCCN4CC(F)F)ccc2cn1)c1ccc2c(c1)S(=O)(=O)CCOC2` [Compound 131], for which the IC50 on BRM (ADP-Glo ATPase assay) was determined as 71.6 nM; at BRG-1 (ADP-Glo ATPase assay), 510 nM. The “Ratio* (BRG1 IC50 (μM) divided by BRM IC50 (μM))” value at BRM amounted to 7.12.

`O=C(NCc1cc2nc(-c3cccc(C4CCOCC4)n3)ccc2cn1)c1ccc2c(c1)S(=O)(=O)CCOC2` [Compound 133]: the values for the IC50 against BRM (ADP-Glo ATPase assay) and at BRG-1 (ADP-Glo ATPase assay) were 61.5 nM and 487 nM, respectively. For the same compound, the “Ratio* (BRG1 IC50 (μM) divided by BRM IC50 (μM))” value on BRM is 7.91.

Consider `Cc1cnc2c(c1)OCCN2c1ccc2cnc(CNC(=O)c3ccc4c(c3)S(=O)(=O)CCOC4)cc2n1` [Compound 491], for which the IC50 against BRM (setting [1]) was 5.8 nM; at BRG-1 (setting [1]), 62.8 nM. For the same compound, the “Ratio*” value at BRM (ratio of BRG1 IC50 to BRM IC50) is 10.83.

As to `COCCN1CCCc2ccc(-c3ccc4cnc(CNC(=O)c5ccc6c(c5)S(=O)(=O)CCOC6)cc4n3)nc21` [Compound 109], the IC50 came out at 16.9 nM against BRM (ADP-Glo ATPase assay) and 127 nM at BRG-1 (ADP-Glo ATPase assay). For the same compound, the “Ratio* (BRG1 IC50 (μM) divided by BRM IC50 (μM))” value on BRM stood at 7.52.

For the compound `O=C(NCc1cc2nc(-c3cccc([C@H]4CC4(F)F)n3)ccc2cn1)c1ccc2c(c1)S(=O)(=O)CCOC2` [Compound 267], the IC50 came to 35.2 nM against BRM (ADP-Glo ATPase assay) and 1090 nM at BRG-1 (ADP-Glo ATPase assay). Besides, the “Ratio* (BRG1 IC50 (μM) divided by BRM IC50 (μM))” value on BRM came to 30.99.

On to `COc1nc(C(F)F)ccc1-c1ccc2cnc(CNC(=O)c3ccc4c(c3)S(=O)(=O)[C@@H](C)COC4)cc2n1` [Compound 405], for which the IC50 against BRM (setting [1]) was 10.9 nM; at BRG-1 (setting [1]), 188 nM. For the same compound, on BRM (ratio of BRG1 IC50 to BRM IC50), the “Ratio*” value was 17.27.

The values above are taken from US20230416248A1, “COMPOUNDS AND USES THEREOF” (Foghorn Therapeutics Inc., priority 2020, published 2023).
